Test results reported in ChEMBL document CHEMBL4422644, “Synthesis and evaluation of α-aminoacyl amides as antitubercular agents effective on drug resistant tuberculosis” (Eur J Med Chem, 2019).
pIC50: −log10 of the molar value. Values after ≈ are worked out from the molar mass of the structure shown.

How the values were obtained:
[1] = system: Klebsiella pneumoniae; test: Antibacterial activity against Klebsiella pneumoniae ATCC BAA-1705 after 24 hrs; format: functional; settings: ATCC BAA-1705, 24 h
[2] = system: Mycobacterium tuberculosis; test: Antitubercular activity against Mycobacterium tuberculosis H37Rv after 7 days by alamar blue assay; format: functional; settings: 168 h
[3] = system: Mycobacteroides abscessus; test: Antibacterial activity against Mycobacterium abscessus after 7 days by alamar blue assay; format: functional; settings: 168 h
[4] = system: Mycobacteroides chelonae; test: Antibacterial activity against Mycobacterium chelonae after 7 days by alamar blue assay; format: functional; settings: 168 h
[5] = system: Acinetobacter baumannii; test: Antibacterial activity against Acinetobacter baumannii ATCC BAA-1605 after 24 hrs; format: functional; settings: ATCC BAA-1605, 24 h
[6] = system: A549; test: Cytotoxicity against human A549 cells after 24 hrs by MTT assay; format: functional, cell-based; settings: A549, 24 h
[7] = Cytotoxicity against […] B16 cells after 24 hrs by MTT assay; format: functional, cell-based; settings: B16, 24 h
[8] = system: DU-145; test: Cytotoxicity against human DU145 cells after 24 hrs by MTT assay; format: functional, cell-based; settings: DU-145, 24 h
[9] = Selectivity index, ratio of IC50 for CHOK1 cells to MIC for Mycobacterium tuberculosis H37Rv; format: toxicity; settings: hamster, read-out: Selectivity Index
[10] = system: Pseudomonas aeruginosa; test: Antibacterial activity against Pseudomonas aeruginosa ATCC 27853 after 24 hrs; format: functional; settings: ATCC 27853, 24 h
[11] = Cytotoxicity against HEK cells after 24 hrs by MTT assay; format: cell-based; settings: Homo sapiens, HEK293, 24 h
[12] = system: Mycolicibacterium fortuitum; test: Antibacterial activity against Mycobacterium fortuitum after 7 days by alamar blue assay; format: functional; settings: 168 h
[13] = system: HepG2; test: Cytotoxicity against human HepG2 cells after 24 hrs by MTT assay; format: functional, cell-based; settings: HepG2, 24 h
[14] = system: Escherichia coli; test: Antibacterial activity against Escherichia coli ATCC 25922 after 24 hrs; format: functional; settings: ATCC 25922, 24 h
[15] = system: Staphylococcus aureus; test: Antibacterial activity against Staphylococcus aureus ATCC 29213 after 24 hrs; format: functional; settings: ATCC 29213, 24 h
[16] = system: CHO-K1; test: Cytotoxicity against CHOK1 cells after 24 hrs by MTT assay; format: cell-based; settings: Cricetulus griseus, CHO-K1, 24 h
[17] = system: Mycobacterium tuberculosis; test: Antitubercular activity against Mycobacterium tuberculosis H37Rv after 6 days by alamar blue assay; format: functional; settings: 144 h
[18] = system: MCF7; test: Cytotoxicity against human MCF7 cells after 24 hrs by MTT assay; format: functional, cell-based; settings: MCF7, 24 h
[19] = system: HeLa; test: Cytotoxicity against human HeLa cells after 24 hrs by MTT assay; format: functional, cell-based
[20] = Selectivity index, ratio of IC50 for HEK cells to MIC for Mycobacterium tuberculosis H37Rv; format: toxicity; settings: human, read-out: Selectivity Index
[21] = system: Mycobacterium tuberculosis; test: Antitubercular activity against Mycobacterium tuberculosis H37Rv assessed as microbial killing at 4 fold MIC incubated for 6 days by MPN assay; format: functional, organism-based

Row | SMILES | MIC [1] [µM] | MIC [2] [µM] | MIC [3] [µM] | MIC [4] [µM] | MIC [5] [µM] | pIC50 [6] | pIC50 [7] | pIC50 [8] | selectivity ratio [9] | MIC [10] [µM] | pIC50 [11] | MIC [12] [µM] | pIC50 [13] | MIC [14] [µM] | MIC [15] [µM] | pIC50 [16] | pIC50 [18] | pIC50 [19] | selectivity ratio [20] | further results
1 | Cc1nc(C)c(C(=O)N(c2cccc(C)c2C)C(C(=O)NC2CCCCC2)c2ccccc2)s1 (configuration not stated) | > 50 | 12.5 (≈ 5.95 µg/mL) | > 50 | > 50 | > 50 | 4.90 | 4.81 | 4.90 | 2.1 | > 50 | 4.46 | > 50 | 5.03 | > 50 | > 50 | 4.56 | 4.96 | 5.08 | – | MIC [17]: 12.5 µM (≈ 5.95 µg/mL)
2 | Cc1nc(C)c(C(=O)N(c2cccc(C)c2C)C(C(=O)NC2CCCCC2)c2ccncc2)s1 (configuration not stated) | > 50 | 1.56 (≈ 0.744 µg/mL) | > 50 | > 50 | > 50 | 5.18 | 4.94 | 4.96 | 45.5 | > 50 | 4.31 | > 50 | 4.84 | > 50 | > 50 | 4.14 | 5.35 | 4.98 | 31.4 | –
3 | Cc1nc(C)c(C(=O)N(c2cccc(C)c2C)C(C(=O)NC2CCCCC2)c2cccnc2)s1 (configuration not stated) | > 50 | 0.78 (≈ 0.372 µg/mL) | > 50 | > 50 | > 50 | 5.06 | 4.87 | 5.00 | 136 | > 50 | 4.09 | > 50 | 4.85 | > 50 | > 50 | 3.97 | 5.19 | 5.02 | 104 | Activity [21]: Dose-dependent effect
4 | Cc1cccc(N(C(=O)c2c(C)noc2C)C(C(=O)NC2CCCCC2)c2ccccc2)c1C (configuration not stated) | > 50 | 3.12 (≈ 1.43 µg/mL) | > 50 | > 50 | > 50 | 5.07 | 4.56 | 5.00 | 15.1 | > 50 | 4.01 | > 50 | 4.98 | > 50 | > 50 | 4.32 | 5.52 | 5.06 | 31.3 | –
